{"source": "patent US12172971B1", "about": "“N′-(2-naphthoyloxy)-2-(benzo[d]oxazol-2-yl)acetimidamide as an antimicrobial compound” (priority 2023, dated 2024)", "tested_on": "Bacillus cereus, Staphylococcus aureus, Pseudomonas aeruginosa, Escherichia coli, Aspergillus flavus, Chrysosporium keratinophilum", "assay": "agar plate disc-diffusion antimicrobial test", "assay_type": "cell-based", "conditions": "discs wetted with 10 μL of 10 mg/mL in DMSO; 37° C., 48 h, 72 h for fungi; gram positive and gram-negative bacteria and fungi", "description": "The agar plate disc-diffusion method was applied. Sterilized filter papers (6 mm in diameter) were wetted with 10 μL of a solution of N′-(2-naphthoyloxy)-2-(benzo[d]oxazol-2-yl)acetimidamide (3) to be tested, containing 10 mg/mL in DMSO, and the discs were allowed to air dry. The discs were then placed onto the surface of agar plates (nutrient agar for bacteria and Sabouraud's dextrose agar for fungi) seeded with the test organism. Each plate contained 15 mL of the agar medium, previously seeded with 0.2 mL of the broth culture of each organism pregrown for 18 hours. The plates were incubated at 37° C. for 48 h, and 72 h for fungi. The inhibition zones were measured in mm. Discs impregnated with DMSO were used as a control, and its inhibition zone was subtracted from the tested compound actual inhibition zone. […] The antibacterial activity was screened against gram positive bacteria namely Bacillus cereus and Staphylococcus aureus and gram-negative bacterial strains namely Pseudomonas aeruginosa and Escherichia coli, while the antifungal activity was screened against Aspergillus flavus and Chrysosporium keratinophilum.", "data": [{"smiles": "N/C(Cc1nc2ccccc2o1)=N\\OC(=O)c1ccc2ccccc2c1", "note": "[compound 3, N′-(2-naphthoyloxy)-2-(benzo[d]oxazol-2-yl)acetimidamide]", "values": [{"measurement": "antimicrobial activity (disc-diffusion inhibition zones)", "result": "high antimicrobial activities"}]}]}
